Results: patent publication US20140213576A1, “NOVEL COMPOUND USEFUL FOR THE TREATMENT OF DEGENERATIVE AND INFLAMMATORY DISEASES” (GALAPAGOS NV, priority 2013, published 2014)
Where “and” joins values, the source holds several entries; their conditions need not be identical. Identical values can stand only once.

Key:
HeLa cells = assay: JAK-STAT signalling assay (OSM-triggered pSTAT1(2)-luciferase reporter); type: cell-based; settings: human OSM 33 ng/mL, STAT1 luciferase reporter, individual determinations
Description: HeLa cells were maintained in Dulbecco's Modified Eagle's Medium (DMEM) containing 10% heat inactivated fetal calf serum, 100 U/mL penicillin and 100 μg/mL streptomycin. HeLa cells were used at 70% confluence for transfection. 20,000 cells in 87 μL cell culture medium were transiently transfected with 40 ng pSTAT1(2)-luciferase reporter (Panomics), 8 ng of LacZ reporter as internal control reporter and 52 ng of pBSK using 0.32 μL Jet-PEI (Polyplus) as transfection reagent per well in 96-well plate format. After overnight incubation at 37° C., 5% CO2, transfection medium was removed. 81 μL of DMEM+1.5% heat inactivated fetal calf serum was added. […]
40 μL of cell lysate was used to read β-galactosidase activity by adding 180 μL β-Gal solution (30 μL ONPG 4 mg/mL+150 μL β-Galactosidase buffer (0.06 M Na2HPO4, 0.04 M NaH2PO4, 1 mM MgCl2)) for 20 min. The reaction was stopped by addition of 50 μL Na2CO3 1 M. Absorbance was read at 405 nm.
Luciferase activity was measured using 40 μL cell lysate plus 40 μL of Steadylite® as described by the manufacturer (Perkin Elmer), on the Envision (Perkin Elmer). […]
Percentage inhibition=((fluorescence determined in the presence of vehicle−fluorescence determined for sample with test compound present) divided by (fluorescence determined in the presence of vehicle−fluorescence determined for sample without trigger))[…]. […]

TYK2 = target: T1, TYK2 (Homo sapiens, UniProt P29597); assay: TYK2 Ki determination assay (kinase tracer 236 binding); settings: binding experiment, 50 nM kinase tracer 236; read-out: Ki against TYK2
T1 construct: purchased Carna Biosciences 09CBS-0983D
T1 sequence (P29597 whole entry): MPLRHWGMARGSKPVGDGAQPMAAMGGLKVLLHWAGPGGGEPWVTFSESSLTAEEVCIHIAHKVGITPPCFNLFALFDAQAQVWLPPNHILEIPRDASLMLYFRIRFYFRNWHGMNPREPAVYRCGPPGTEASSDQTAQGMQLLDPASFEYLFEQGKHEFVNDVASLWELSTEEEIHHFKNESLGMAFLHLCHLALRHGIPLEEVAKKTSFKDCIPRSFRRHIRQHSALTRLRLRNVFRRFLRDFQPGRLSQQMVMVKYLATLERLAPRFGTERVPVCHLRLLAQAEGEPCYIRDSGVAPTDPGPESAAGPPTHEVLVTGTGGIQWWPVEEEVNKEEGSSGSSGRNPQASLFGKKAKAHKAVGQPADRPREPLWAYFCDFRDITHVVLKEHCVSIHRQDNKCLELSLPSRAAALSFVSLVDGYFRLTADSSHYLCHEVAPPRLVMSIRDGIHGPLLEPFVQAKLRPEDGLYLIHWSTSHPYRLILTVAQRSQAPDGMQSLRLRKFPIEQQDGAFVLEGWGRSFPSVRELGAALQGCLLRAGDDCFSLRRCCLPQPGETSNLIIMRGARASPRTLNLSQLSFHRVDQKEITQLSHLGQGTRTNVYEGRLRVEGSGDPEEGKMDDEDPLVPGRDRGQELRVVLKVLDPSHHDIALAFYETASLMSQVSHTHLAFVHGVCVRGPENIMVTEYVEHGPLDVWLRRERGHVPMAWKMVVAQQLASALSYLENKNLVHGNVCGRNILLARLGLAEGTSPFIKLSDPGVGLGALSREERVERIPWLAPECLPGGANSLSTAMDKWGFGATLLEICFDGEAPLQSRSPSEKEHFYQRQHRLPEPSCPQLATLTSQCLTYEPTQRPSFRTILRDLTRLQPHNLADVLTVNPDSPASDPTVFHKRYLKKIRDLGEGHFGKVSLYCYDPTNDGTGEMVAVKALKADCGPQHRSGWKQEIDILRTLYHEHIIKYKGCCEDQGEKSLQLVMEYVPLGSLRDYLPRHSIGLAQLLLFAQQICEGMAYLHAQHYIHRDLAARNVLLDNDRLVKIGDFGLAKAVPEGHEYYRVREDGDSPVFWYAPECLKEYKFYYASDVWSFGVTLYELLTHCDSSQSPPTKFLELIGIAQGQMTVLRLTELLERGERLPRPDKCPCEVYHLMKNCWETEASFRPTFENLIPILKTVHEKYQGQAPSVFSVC
Description: TYK2 (Carna Biosciences, 09CBS-0983D) was used at a final concentration of 5 nM. The binding experiment was performed in 50 mM Hepes pH 7.5, 0.01% Brij-35, 10 mM MgCl2, 1 mM EGTA using 50 nM kinase tracer 236 (Invitrogen, PV5592) and 2 nM Eu-anti-GST (Invitrogen, PV5594) with varying compound concentrations. Detection of tracer was performed according to the manufacturers’ procedure.

[1] = target: T2, Recombinant human JAK1 (catalytic domain, amino acids 866-1154) (Homo sapiens, UniProt P23458); assay: JAK1 Ulight-JAK1 peptide assay; type: biochemical
T2 construct: Recombinant human JAK1 (catalytic domain, amino acids 866-1154; catalog number PV4774); purchased Invitrogen PV4774
T2 sequence (P23458 866-1154): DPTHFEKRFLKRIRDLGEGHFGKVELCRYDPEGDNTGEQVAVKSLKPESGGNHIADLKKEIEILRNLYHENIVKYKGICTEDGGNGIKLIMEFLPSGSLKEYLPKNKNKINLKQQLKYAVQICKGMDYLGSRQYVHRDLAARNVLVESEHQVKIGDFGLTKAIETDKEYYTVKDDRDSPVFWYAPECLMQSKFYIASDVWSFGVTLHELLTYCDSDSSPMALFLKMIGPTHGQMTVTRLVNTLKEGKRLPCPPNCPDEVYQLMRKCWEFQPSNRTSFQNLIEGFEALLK
Description: Recombinant human JAK1 (catalytic domain, amino acids 866-1154; catalog number PV4774) was purchased from Invitrogen. 1 ng of JAK1 was incubated with 20 nM Ulight-JAK1(tyr1023) peptide (Perkin Elmer catalog number TRF0121) in kinase reaction buffer (25 mM MOPS pH6.8, 0.01% Brij-35, 5 mM MgCl2, 2 mM DTT, 7 μM ATP) with or without 4 μL containing test compound or vehicle (DMSO, 1% final concentration), in a total volume of 20 μL, in a white 384 Opti plate (Perkin Elmer, catalog number 6007290). After 60 min at room temperature, reactions were stopped by adding 20 μL/well of detection mixture (1× detection buffer (Perkin Elmer, catalog number CR97-100C), 0.5 nM Europium-anti-phosphotyrosine (PT66) (Perkin Elmer, catalog number AD0068), 10 mM EDTA). Readout is performed using the Envision with excitation at 320 nm and measuring emission at 615 nm (Perkin Elmer). Kinase activity was calculated by subtracting relative fluorescence units (RFU) obtained in the presence of a positive control inhibitor (10 μM staurosporine) from RFU obtained in the presence of vehicle. The ability of a test compound to inhibit this activity was determined as:
Percentage inhibition=((RFU determined for sample with test compound present−RFU determined for sample with positive control inhibitor) divided by (RFU determined in the presence of vehicle−RFU determined for sample with positive control inhibitor))*100.
Dose dilution series were prepared for the compounds enabling the testing of dose-response effects in the JAK1 assay and the calculation of the IC50 for the compound. Each compound is routinely tested at concentration of 20 μM followed by a ⅕ serial dilution, 10 points in a final concentration of 1% DMSO. […] The data are expressed as the average IC50 from the assays±standard error of the mean.

BA/F3 (ATCC CRL-12015) = assay: BA/F3 viability assay; type: cell-based, murine; settings: IL3-dependent viability, ATP-lite, individual determinations
From the text: The protocol describes the methods to analyse the activity of compounds on the ability to sustain the IL3-dependent viability of BA/F3 (ATCC CRL-12015; Collins et al, 1992).

IC50 (HeLa cells; Homo sapiens, HeLa): 1650 nM
IC50 (HeLa cells; listed as compound of the invention): 1660 nM
Ki (TYK2): 336 nM
selectivity for JAK1 vs the other JAK family members (JAK2, JAK3, and TYK2) [1]: at least 10 fold
IC50 ([1]; Ulight-JAK1(tyr1023) peptide, 7 μM ATP, individual determinations, read-out: IC50 against JAK1): 6.59 nM and 7.68 nM and 12.9 nM and 4.47 nM and 10.2 nM and 9.11 nM and 5.42 nM and 8.37 nM and 9.43 nM and 6.94 nM
JAK1 selectivity vs JAK2 ([1]; vs JAK2): > 15 fold
JAK1 selectivity vs JAK3 ([1]; vs JAK3): > 70 fold
JAK1 selectivity vs TYK2 ([1]; vs TYK2): > 80 fold
IC50 (BA/F3 (ATCC CRL-12015); 48 h, listed as compound of the invention): 8020 nM
IC50 (BA/F3 (ATCC CRL-12015); Mus musculus, BaF3, 48 h): > 11100 nM
SMILES: CCc1cc(C2CN(S(C)(=O)=O)C2)ncc1N(C)c1cc2c(cn1)ncn2C [Compound 1, [4-Ethyl-6-(1-methanesulfonyl-azetidin-3-yl)-pyridin-3-yl]-methyl-(1-methyl-1H-imidazo[4,5-d]pyridin-6-yl)-amine]
